Data set [1] can be described thus: Comparative cardiovascular effects (heart rate, mean arterial pressure, coronary blood flow) after intravenous dosing in anesthetized dogs. It counts as in vivo. The conditions noted are these: for effect on heart rate (in words): M2 at 1600 μg/kg, diltiazem at 400 μg/kg; for reduction in heart rate: M2 at a dosage 4 times greater than diltiazem.
A short description of another data set: Liposolubility. Type of data set: physicochemical.
The conditions of data set [2]: dogs; test of dose required to cause a 50% increase in blood flow; cited from earlier work.
A short description of data set [3]: Elimination and metabolism. Type of data set: in vivo.
A further data set in a line: Side effects. It counts as in vivo. The conditions noted are these: compositions.
Setting [4] is: anesthetized dogs, 50 μg/kg intravenous, value at 0 μg/kg: D 59, M2 49.
Where [5] appears, read: anesthetized dogs, 50 μg/kg intravenous, value at 0 μg/kg: D 99, M2 99.
The mark [6] stands for this setting: anesthetized dogs, 200 μg/kg intravenous, value at 0 μg/kg: D 59, M2 49.
Where [7] appears, read: anesthetized dogs, 200 μg/kg intravenous, value at 0 μg/kg: D 99, M2 99.
[8] abbreviates: anesthetized dogs, 200 μg/kg intravenous, value at 0 μg/kg: D 130, M2 127.

Molecules are shown by their SMILES. “Also recorded” adds a separate entry of the source. Structures can show the parent of a compound that is named as a salt. Bounds are passed on as bounds.

Regarding `COc1ccc([C@@H]2Sc3ccccc3N(CCN(C)C)C(=O)[C@@H]2OC(C)=O)cc1` [Diltiazem, (+)-cis-3-(acetyloxy)-5-[2-dimethylamino-ethyl]-2,3-dihydro-2-(4-methoxyphenyl)-l,5-benzothiaz epin-4(5H)one monohydrochloride, reference compound], the Coronary blood flow in data set [1] (anesthetized dogs, 15 μg/kg intravenous, value at 0 μg/kg: D 59) is 67 mL/min; in data set [1] (setting [4]) it was 73 mL/min; in data set [1] (setting [6]), 91 mL/min; in data set [1] (anesthetized dogs, 400 μg/kg intravenous, value at 0 μg/kg: D 59) it was 83 mL/min. For the same compound, the Mean arterial pressure is 94 mm Hg in data set [1] (anesthetized dogs, 15 μg/kg intravenous, value at 0 μg/kg: D 99); 84 mm Hg in data set [1] (setting [5]); 67 mm Hg in data set [1] (setting [7]); 58 mm Hg in data set [1] (anesthetized dogs, 400 μg/kg intravenous, value at 0 μg/kg: D 99). In data set [1] (setting [8]), this compound returned a Heart rate of 122 beats/minute. In addition, the “Maximal reduction in mean arterial pressure” value in data set [1] (anesthetized dogs, intravenous) is -38%. Besides, the “increase in coronary blood flow” value in data set [1] (anesthetized dogs, intravenous) was greater than 50%. For the same compound, the “effect on heart rate (in words)” value in data set [1] (anesthetized dogs, intravenous) is “significant effect on the heart rate”. Also, in data set [1] (anesthetized dogs, intravenous), the “reduction in heart rate” value is given as greater than 20%.

As to `CNCCN1C(=O)C(O)C(c2ccc(OC)cc2)Sc2ccccc21` (stereo not drawn) [M2, N-desmethyl, deacetyl diltiazem], the “liposolubility compared with diltiazem” value in the data set “Liposolubility” is given as “lower liposolubility than diltiazem”. The Coronary blood flow was 53 mL/min in data set [1] (setting [4]); 55 mL/min in data set [1] (setting [6]); 61 mL/min in data set [1] (anesthetized dogs, 800 μg/kg intravenous, value at 0 μg/kg: M2 49); 61 mL/min in data set [1] (anesthetized dogs, 1600 μg/kg intravenous, value at 0 μg/kg: M2 49). The Mean arterial pressure in data set [1] (setting [5]) was determined as 96 mm Hg; in data set [1] (setting [7]) it was 88 mm Hg; in data set [1] (anesthetized dogs, 800 μg/kg intravenous, value at 0 μg/kg: M2 99), 74 mm Hg; in data set [1] (anesthetized dogs, 1600 μg/kg intravenous, value at 0 μg/kg: M2 99), 63 mm Hg. For the same compound, the Heart rate is given as 127 beats/minute in data set [1] (anesthetized dogs, 50 μg/kg intravenous, value at 0 μg/kg: D 130, M2 127); 127 beats/minute in data set [1] (setting [8]); 125 beats/minute in data set [1] (anesthetized dogs, 800 μg/kg intravenous, value at 0 μg/kg: M2 127); 119 beats/minute in data set [1] (anesthetized dogs, 1600 μg/kg intravenous, value at 0 μg/kg: M2 127). The “Maximal reduction in mean arterial pressure” value in data set [1] (anesthetized dogs, intravenous) is -36%. The “coronary blood flow dilation relative to diltiazem” value in data set [1] (anesthetized dogs, intravenous) is reported as “about half that effect; also recorded: about half that of diltiazem”. In addition, the “increase in coronary blood flow” value in data set [1] (anesthetized dogs, intravenous) is listed as greater than 25%. The “peripheral dilation capacity relative to diltiazem” value in data set [1] (anesthetized dogs, intravenous) is “equivalent peripheral dilation capacity”. Besides, the “effect on heart rate (in words)” value in data set [1] (anesthetized dogs, intravenous) is recorded as “devoted of major effect upon heart rate”; in data set [1] (anesthetized dogs, intravenous, deacetyl diltiazem) it was “only a slight effect on the heart rate”. Besides, in data set [1] (anesthetized dogs, intravenous), the “reduction in heart rate” value was less than 10%. Moreover, the “serious cardiovascular adverse effects” value in data set [1] (anesthetized dogs, maximal dosage 4 times greater than diltiazem) is “without serious cardiovascular adverse effects”. Also, in data set [1] (anesthetized dogs, various intravenous dosages), the “effect on mean arterial pressure (in words)” value is “decreases the mean arterial pressure”. In addition, in data set [1] (compared with diltiazem), the “decrease in heart rate compared with diltiazem” value was “decrease the heart rate to a lesser degree than diltiazem”. Besides, the “intravenous dosages suitable for use as a coronary dilator” value in data set [1] (intravenous) fell in the range of 50 to 1600 µg/kg. Moreover, the “intravenous dosages useful to decrease blood pressure or mean arterial pressure” value in data set [1] (intravenous) fell in the range of 200 to 1600 µg/kg. The “effect on coronary blood flow relative to diltiazem” value in data set [2] is listed as 20%. Moreover, the “elimination half life compared with diltiazem” value in data set [3] (compared with diltiazem) is listed as “shorter elimination half life”. In addition, the “metabolism by the liver” value in data set [3] (in vivo) was “not metabolized extensively by the liver”. In addition, the “side effects compared with diltiazem” value in the data set “Side effects” is listed as “less side effects than diltiazem”.

The values are drawn from US4950663A, “Antihypertensive composition” (priority 1989, dated 1990).
